Assay [1] addresses KDR (Homo sapiens (Human), UniProt P35968). Nature of the assay: KDR autophosphorylation ELISA in HUVEC cells. The following applies: cellular, VEGF165 stimulated. The assay is classed as cell-based. The essentials:
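HUVEC, 24 h serum-free starvation; cpd 8-pt dilution, 0.3% DMSO final, 1 h; VEGF165 100 ng/mL, 5 min; cold lysis; phospho-KDR ELISA; IC50, 4PL.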

The target of assay [2] is Human Met (residues R974-S1390 with A1209G and V1290L) (Homo sapiens, UniProt P08581). Kind of assay: Human Met kinase assay (33P radiometric, KinaseProfiler). The following applies: 10 μM ATP, read-out: c-Met IC50. The assay is classed as biochemical. As for the experimental part: Kinase activity and compound inhibition were investigated using the ^33P-Phosphoryl transfer radiometric kinase assay, performed using the KinaseProfiler™ service of Eurofins Pharma Discovery Services UK Limited. Dose-response experiments were performed using nine compound concentrations in a 96-well microtiter plate. For each assay, all compounds were prepared to a 50× final assay concentration (50 μM) in 100% DMSO, then diluted in a half-log series, with the final top concentration at 1 μM. This working stock of the compound was added to the assay well as the first component in the reaction, followed by the remaining components as detailed in the following assay protocols below. The positive control wells (100% kinase activity) contain all components of the reaction including 2% DMSO (control for solvent effects), except the compound of interest. Blank wells contain all components of the reaction, with the reference inhibitor, staurosporine. This reference compound was used to abolish kinase activity and generated the 0% kinase activity base-line. IC50 values were calculated by nonlinear regression analysis using the sigmoidal dose-response (variable slope) curve fit on XLFit version 5.3 (ID Business Solutions).
Human Met (residues R974-S1390 with A1209G and V1290L, 3.4 nM) was incubated with 8 mM MOPS pH 7.0, 0.2 mM EDTA, 250 μM KKKGQEEEYVFIE (SEO ID NO. 45), 1 mM sodium orthovanadate, 5 mM […], 10 mM magnesium acetate, and 10 μM [γ-33P-ATP]. The reaction was initiated by the addition of the Mg/ATP mix. After incubation for 40 minutes at room temperature, the reaction was stopped by the addition of phosphoric acid to a concentration of 0.5%. A reaction aliquot of […] was then spotted onto a P30 filtermat and washed four times for 4 minutes in 0.425% phosphoric acid and once in methanol prior to drying and scintillation counting. Incorporated 33P was measured using the Wallac Microbeta scintillation counter (Perkin Elmer).

KDR, sequence (P35968 20-1356): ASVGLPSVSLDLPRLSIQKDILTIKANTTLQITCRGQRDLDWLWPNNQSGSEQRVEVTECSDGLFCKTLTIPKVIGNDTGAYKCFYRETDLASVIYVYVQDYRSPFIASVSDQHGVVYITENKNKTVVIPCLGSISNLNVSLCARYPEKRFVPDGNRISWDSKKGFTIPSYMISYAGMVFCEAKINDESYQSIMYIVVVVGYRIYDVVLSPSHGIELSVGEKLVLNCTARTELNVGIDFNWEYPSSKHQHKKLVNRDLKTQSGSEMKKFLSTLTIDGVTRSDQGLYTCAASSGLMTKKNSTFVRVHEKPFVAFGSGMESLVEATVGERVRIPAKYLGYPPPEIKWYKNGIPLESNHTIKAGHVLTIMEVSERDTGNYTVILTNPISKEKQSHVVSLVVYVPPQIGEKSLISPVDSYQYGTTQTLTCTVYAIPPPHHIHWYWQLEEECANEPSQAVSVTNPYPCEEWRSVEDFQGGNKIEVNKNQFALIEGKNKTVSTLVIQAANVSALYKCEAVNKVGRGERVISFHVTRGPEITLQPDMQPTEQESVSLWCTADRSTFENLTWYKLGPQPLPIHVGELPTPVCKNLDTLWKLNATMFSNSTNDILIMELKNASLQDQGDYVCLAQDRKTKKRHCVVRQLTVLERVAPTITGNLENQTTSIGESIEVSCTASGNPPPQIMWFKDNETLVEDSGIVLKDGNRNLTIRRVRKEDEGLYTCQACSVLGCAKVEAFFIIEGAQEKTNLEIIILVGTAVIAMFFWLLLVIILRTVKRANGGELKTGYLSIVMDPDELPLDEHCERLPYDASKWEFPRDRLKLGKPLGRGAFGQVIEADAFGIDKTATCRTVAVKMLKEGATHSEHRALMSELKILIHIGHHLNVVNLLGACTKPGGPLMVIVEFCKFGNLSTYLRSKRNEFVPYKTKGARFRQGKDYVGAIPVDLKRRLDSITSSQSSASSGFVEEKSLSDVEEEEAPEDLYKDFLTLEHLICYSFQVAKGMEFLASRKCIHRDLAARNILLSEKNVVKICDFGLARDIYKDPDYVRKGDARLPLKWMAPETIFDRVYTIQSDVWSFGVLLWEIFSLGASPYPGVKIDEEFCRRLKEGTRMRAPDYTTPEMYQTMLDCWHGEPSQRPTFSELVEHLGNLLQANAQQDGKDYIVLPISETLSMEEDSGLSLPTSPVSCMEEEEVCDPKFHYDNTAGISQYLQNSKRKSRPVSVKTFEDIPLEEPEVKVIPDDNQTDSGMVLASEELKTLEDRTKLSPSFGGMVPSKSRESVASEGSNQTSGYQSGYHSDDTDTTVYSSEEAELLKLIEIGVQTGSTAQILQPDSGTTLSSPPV

Broadly, the IC50 is the concentration that gives 50% inhibition. For the molecule `COC(=O)c1cc2c(Oc3ccc(NC(=O)C4(C(=O)Nc5ccc(F)cc5)CC4)cc3)ccnc2cc1OC` [Compound 5, methyl 4-[4-[[1-[(4-fluorophenyl)carbamoyl]-cyclopropanecarbonyl]amino]-phenoxy]-7-methoxyquinoline-6-carboxylate], the IC50 in assay [1] and in assay [2] was at most 10 nM each time.
For `COc1cc2nccc(Oc3ccc(NC(=O)C4(C(=O)Nc5ccc(F)cc5)CC4)cc3)c2cc1C(=O)NC1COC1` [Compound 13, 1-N′-(4-fluorophenyl)-1-N-[4-[7-methoxy-6-(oxetan-3-ylcarbamoyl)quinolin-4-yl]oxyphenyl]cyclopropane-1,1-dicarboxamide], the IC50 in assay [1] and in assay [2] was at most 10 nM throughout.
Consider `COc1cc2nccc(Oc3ccc(NC(=O)C4(C(=O)Nc5ccc(F)cc5)CC4)cc3)c2cc1C(=O)NC1CN(C)C1` [Compound 14, 1-N′-(4-fluorophenyl)-1-N-[4-[7-methoxy-6-[(1-methylazetidin-3-yl)carbamoyl]quinolin-4-yl]oxyphenyl]cyclopropane-1,1-dicarboxamide], for which the IC50 in assay [1] is 10 to 100 nM; in assay [2] it was at most 10 nM.
For `COc1cc2nccc(Oc3ccc(NC(=O)C4(C(=O)Nc5ccc(F)cc5)CC4)cc3)c2cc1C(=O)N1CCC1` [Compound 15, 1-N-[4-[6-(azetidine-1-carbonyl)-7-methoxyquinolin-4-yl]oxyphenyl]-1-N′-(4-fluorophenyl)cyclopropane-1,1-dicarboxamide] the same measures were above 300 nM and 10 to 100 nM.
In the same order, the values of `COc1cc2nccc(Oc3ccc(NC(=O)C4(C(=O)Nc5ccc(F)cc5)CC4)cc3)c2cc1C(=O)N1CC(O)C1` [Compound 16, 1-N′-(4-fluorophenyl)-1-N-[4-[6-(3-hydroxyazetidine-1-carbonyl)-7-methoxyquinolin-4-yl]oxyphenyl]cyclopropane-1,1-dicarboxamide] are 100 to 300 nM and at most 10 nM.
For `COc1cc2nccc(Oc3ccc(NC(=O)C4(C(=O)Nc5ccc(F)cc5)CC4)cc3)c2cc1C#N` [Compound 37, 1-N-[4-(6-cyano-7-methoxyquinolin-4-yl)oxyphenyl]-1-N′-(4-fluorophenyl)cyclopropane-1,1-dicarboxamide] the same measures were 10 to 100 nM and 10 to 100 nM.
As to `NC(=O)c1ccc2nccc(Oc3ccc(NC(=O)C4(C(=O)Nc5ccc(F)cc5)CC4)cc3)c2c1` [Compound 58, 1-N-[4-(6-carbamoylquinolin-4-yl)oxyphenyl]-1-N′-(4-fluorophenyl)cyclopropane-1,1-dicarboxamide], the IC50 in assay [1] lay in the range of 100 to 300 nM; in assay [2], 10 to 100 nM.
For `CNC(=O)c1ccc2nccc(Oc3ccc(NC(=O)C4(C(=O)Nc5ccc(F)cc5)CC4)cc3)c2c1` [Compound 59, 1-N′-(4-fluorophenyl)-1-N-[4-[6-(methylcarbamoyl)quinolin-4-yl]oxyphenyl]cyclopropane-1,1-dicarboxamide] the same measures were 100 to 300 nM and 10 to 100 nM.
In the same order, the values of `CN1CC(NC(=O)c2ccc3nccc(Oc4ccc(NC(=O)C5(C(=O)Nc6ccc(F)cc6)CC5)cc4)c3c2)C1` [Compound 60, 1-N′-(4-fluorophenyl)-1-N-[4-[6-[(1-methylazetidin-3-yl)carbamoyl]quinolin-4-yl]oxyphenyl]cyclopropane-1,1-dicarboxamide] are above 300 nM and 10 to 100 nM.
As for `NC(=O)c1cc2c(Oc3ccc(NC(=O)C4(C(=O)Nc5ccc(F)cc5)CC4)cc3)ccnc2cc1F` [Compound 67, 1-N-[4-(6-carbamoyl-7-fluoroquinolin-4-yl)oxyphenyl]-1-N′-(4-fluorophenyl)cyclopropane-1,1-dicarboxamide], the IC50 in assay [1] was 100 to 300 nM; in assay [2] it was 10 to 100 nM.
Regarding `COCCOc1cc2nccc(Oc3ccc(NC(=O)C4(C(=O)Nc5ccc(F)cc5)CC4)cc3)c2cc1C(N)=O` [Compound 103, 1-N-[4-[6-carbamoyl-7-(2-methoxyethoxy)quinolin-4-yl]oxyphenyl]-1-N′-(4-fluorophenyl)cyclopropane-1,1-dicarboxamide], the IC50 in assay [1] and in assay [2] was at most 10 nM each time.
For `COC(=O)c1cc2c(Oc3ccc(NC(=O)C4(C(=O)Nc5ccc(F)cc5)CC4)cc3Cl)ccnc2cc1OC` [Compound 128, methyl 4-[2-chloro-4-[[1-[(4-fluorophenyl)carbamoyl]cyclopropanecarbonyl]amino]phenoxy]-7-methoxyquinoline-6-carboxylate], the IC50 in assay [1] and in assay [2] was at most 10 nM each time.
For `COC(=O)c1cc2c(Oc3ccc(NC(=O)C4(C(=O)Nc5ccc(F)cc5)CC4)cc3F)ccnc2cc1OC` [Compound 129, methyl 4-[2-fluoro-4-[[1-[(4-fluorophenyl)carbamoyl]cyclopropanecarbonyl]amino]phenoxy]-7-methoxyquinoline-6-carboxylate], the IC50 in assay [1] and in assay [2] was at most 10 nM in each case.
On to `COc1cc2nccc(Oc3ccc(NC(=O)C4(C(=O)Nc5ccc(F)cc5)CC4)cc3Cl)c2cc1C(=O)O` [Compound 130, 4-[2-chloro-4-[[1-[(4-fluorophenyl)carbamoyl]cyclopropanecarbonyl]amino]phenoxy]-7-methoxyquinoline-6-carboxylic acid], for which the IC50 in assay [1] was above 300 nM; in assay [2] it was 10 to 100 nM.
For `COc1cc2nccc(Oc3ccc(NC(=O)C4(C(=O)Nc5ccc(F)cc5)CC4)cc3F)c2cc1C(=O)O` [Compound 131, 4-[2-fluoro-4-[[1-[(4-fluorophenyl)carbamoyl]cyclopropanecarbonyl]amino]phenoxy]-7-methoxyquinoline-6-carboxylic acid] the same measures were above 300 nM and at most 10 nM.
For `COC(=O)c1cc2nccc(Oc3ccc(NC(=O)C4(C(=O)Nc5ccc(F)cc5)CC4)cc3)c2cc1C` [Compound 140, methyl 4-[4-[[1-[(4-fluorophenyl)carbamoyl]cyclopropanecarbonyl]amino]phenoxy]-6-methylquinoline-7-carboxylate] the same measures were 10 to 100 nM and 10 to 100 nM.
Consider `CNC(=O)c1cc2nccc(Oc3ccc(NC(=O)C4(C(=O)Nc5ccc(F)cc5)CC4)cc3)c2cc1C` [Compound 143, 1-N′-(4-fluorophenyl)-1-N-[4-[6-methyl-7-(methylcarbamoyl)quinolin-4-yl]oxyphenyl]cyclopropane-1,1-dicarboxamide], for which the IC50 is 100 to 300 nM in assay [1] and at most 10 nM in assay [2].
In the same order, the values of `COC(=O)c1cc2nccc(Oc3ccc(NC(=O)C4(C(=O)Nc5ccc(F)cc5)CC4)cc3)c2cc1OC` [Compound 150, methyl 4-[4-[[1-[(4-fluorophenyl)carbamoyl]cyclopropanecarbonyl]amino]phenoxy]-6-methoxyquinoline-7-carboxylate] are at most 10 nM and at most 10 nM.
For the molecule `COc1cc2c(Oc3ccc(NC(=O)C4(C(=O)Nc5ccc(F)cc5)CC4)cc3)ccnc2cc1C(N)=O` [Compound 152, 1-N-[4-(7-carbamoyl-6-methoxyquinolin-4-yl)oxyphenyl]-1-N′-(4-fluorophenyl)cyclopropane-1,1-dicarboxamide], the IC50 was 100 to 300 nM in assay [1] and at most 10 nM in assay [2].

Values taken from patent US11542259B2, “Compounds for the treatment of kinase-dependent disorders” (Exelixis, Inc., priority 2018, dated 2023).
